Tests used:
[1] = system: PltM K87A; assay: Cell-based activity assay (Assay 3), PltM K87A; design: species or system E. coli BL21 (DE3); conditions: cultures expressing PltM K87A
Experimental: (§1) E. coli BL21 (DE3) cells were transformed with ppltM-pET28a, ppltMK87A-pET28a, ppltML111Y-pET28a, ppltMS404Y-pET28a, and ppltA-pET28a. The ppltA-pET28a plasmid overexpressing the halogenase PltA whose substrate is pyrrolyl-S-PltL (a peptidyl carrier protein-linked pyrrole) was used as a negative control. Five colonies from each transformant were cultured in 2×500 mL of LB medium (for ppltM-pET28a, ppltML111Y-pET28a, and ppltMS404Y-pET28a) and 1×500 mL of LB medium (for ppltMK87A-pET28a and ppltA-pET28a) with 50 μg/mL kanamycin at 37° C. and 200 rpm until attenuance of 0.2 at 600 nm. The cultures were then moved to 25° C. until attenuance of 0.5. Protein expression was induced by adding 0.2 mM IPTG to all […] flasks, and the cultures were incubated with shaking for 1 h. 12.5 μg/mL of compound 1 was added to 1×500 mL of LB medium containing ppltM-pET28a, ppltMK87A-pET28a, ppltML111Y-pET28a, ppltMS404Y-pET28a, and ppltA-pET28a. Compound 1 was not added to the three remaining flasks (negative controls). After additional incubation for 20 h, the cells were pelleted at 5,000 g for 10 min, and the supernatant was collected. The supernatant was extracted with EtOAc (3×330 mL), which was dried in vacuo. […]
(§2) The halogenation reaction products were analyzed by HPLC or LC-MS by injecting 10 μL of each sample. […]
(§3) For HPLC analysis, the molecules were observed by absorbance at λ=275 nm as described above. […]

[2] = system: PltM S404Y; assay: Cell-based activity assay (Assay 3), PltM S404Y; design: species or system E. coli BL21 (DE3); conditions: cells expressing S404Y mutant
Experimental: as §1, §2, §3

[3] = biological target: PltM (Pseudomonas protegens, UniProt Q4KCZ3); assay: X-ray crystallography of PltM crystals soaked with FAD and substrates; conditions: crystals soaked with 0.5 mM FAD and substrate
Experimental: PltM crystals were obtained by the hanging drop method with drops containing 0.5 μL of PltM (40 mg/mL) and 0.5 μL of the reservoir solution (0.1 M Tris pH 8, 0.2 M NaCl, 0.1 M CaCl2) and 12-17% PEG 8000). The drops were equilibrated against 0.5 mL of reservoir solution at 21° C. Long rod-shaped crystals appeared after 1-3 days. The crystals were cryoprotected by a gradual transfer to the solution with the same composition as the reservoir solution, additionally containing 20% glycerol. The crystals were then frozen by a rapid immersion into liquid nitrogen.
However, PltM contains eight Cys residues, which, if accessible, would react with Hg salts. […] The structure was determined by the single anomalous dispersion (SAD) method from the EMP derivative data set (using the wavelength of 1.0 Å), as follows. […] This Hg substructure was used as an input in Autosolve in PHENIX suite to obtain initial phases, which were bootstrapped by difference Fourier analysis to yield the total of 33 Hg atoms and a readily interpretable electron density map, with the figure of merit of 0.71 after density modification. […]
PltM crystals were soaked in the reservoir solution used to obtained native PltM crystals, with additional 0.5 mM of FAD. […] FAD was readily discernable in the omit Fo-Fc map. […]

Chain of PltM (Q4KCZ3 entry or part of it): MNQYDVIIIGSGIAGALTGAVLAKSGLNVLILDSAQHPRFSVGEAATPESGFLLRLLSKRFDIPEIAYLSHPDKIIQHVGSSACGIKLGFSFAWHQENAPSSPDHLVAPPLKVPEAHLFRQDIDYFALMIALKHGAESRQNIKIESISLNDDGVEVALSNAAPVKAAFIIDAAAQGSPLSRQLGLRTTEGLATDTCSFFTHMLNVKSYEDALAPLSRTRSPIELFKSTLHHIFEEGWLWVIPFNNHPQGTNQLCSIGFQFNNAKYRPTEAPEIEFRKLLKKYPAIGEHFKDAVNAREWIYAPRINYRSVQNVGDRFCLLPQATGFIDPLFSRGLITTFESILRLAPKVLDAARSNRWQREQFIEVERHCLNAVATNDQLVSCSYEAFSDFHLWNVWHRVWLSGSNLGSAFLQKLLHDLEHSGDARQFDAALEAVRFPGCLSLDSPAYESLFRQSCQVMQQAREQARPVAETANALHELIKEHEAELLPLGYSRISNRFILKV

With `Oc1cc(O)cc(O)c1` [Compound 1, phloroglucinol] as the compound, how does the “halogenation in fermentation culture” value [1] read?
The value was “No halogenated product was observed”.

What about the “halogenation in fermentation culture” value [2] of the same compound?
The value was “product yield was significantly reduced compared to wild-type”.

What about the “omit Fo-Fc electron density of substrate in soaked PltM crystals” value [3] of the same compound?
The value was “yielded omit Fo-Fc electron density”.
